Reference: patent publication US10294202B2, “Pyrrolidinones as herbicides” (FMC Corporation, priority 2013, dated 2019)

What was measured:
[1] = test system: morningglory; assay: Test A pre-/postemergence herbicide test; format: in vivo, Ipomoea spp.
How it was run: (§1)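 Seeds sown in loam soil/sand blend received a preemergence directed soil spray of test chemical in non-phytotoxic solvent with surfactant; postemergence plants (2–10 cm, one- to two-leaf stage) were sprayed with the same formulation. After about 10 days in greenhouse, injury was rated visually versus untreated controls, 0 (no effect) to 100 (complete control).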

[2] = test system: giant foxtail; assay: Test A pre-/postemergence herbicide test; format: in vivo, Setaria faberii
How it was run: as §1

[3] = test system: barnyardgrass; assay: Test A pre-/postemergence herbicide test; format: in vivo, Echinochloa crus-galli
How it was run: as §1

[4] = test system: velvetleaf; assay: Test A pre-/postemergence herbicide test; format: in vivo, Abutilon theophrasti
How it was run: as §1

[5] = test system: pigweed; assay: Test A pre-/postemergence herbicide test; format: in vivo, Amaranthus retroflexus
How it was run: as §1

[6] = test system: barnyardgrass; assay: Test B flooded paddy test; format: in vivo, Echinochloa crus-galli; conditions: Flood, scale of 0 to 100 where 0 is no effect and 100 is complete control
How it was run: (§2)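 In-water application to pots flooded 3 cm deep, plants at 2-leaf stage. Held in greenhouse 13–15 days at constant flood depth. Scored 0–100 by eye against controls.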

[7] = test system: ducksalad; assay: Test B flooded paddy test; format: in vivo, Heteranthera limosa; conditions: Flood, scale of 0 to 100 where 0 is no effect and 100 is complete control
How it was run: as §2

[8] = test system: crabgrass, large; assay: Test A pre-/postemergence herbicide test; format: in vivo, Digitaria sanguinalis
How it was run: as §1

[9] = test system: sedge, umbrella; assay: Test B flooded paddy test; format: in vivo, Cyperus difformis; conditions: Flood, scale of 0 to 100 where 0 is no effect and 100 is complete control
How it was run: as §2

[10] = test system: corn; assay: Test A pre-/postemergence herbicide test; format: in vivo, Zea mays
How it was run: as §1

[11] = test system: rice; assay: Test B flooded paddy test; format: in vivo, Oryza sativa; conditions: Flood, scale of 0 to 100 where 0 is no effect and 100 is complete control
How it was run: as §2

[12] = test system: wheat; assay: Test A pre-/postemergence herbicide test; format: in vivo, Triticum aestivum
How it was run: as §1

[13] = Postemergence, 125 g ai/ha, 0 to 100 scale, 0 is no effect, 100 is complete control
[14] = Postemergence, 500 g ai/ha, 0 to 100 scale (0 no effect, 100 complete control)
[15] = Preemergence, 125 g ai/ha, 0 to 100 scale where 0 is no effect and 100 is complete control
[16] = preemergence, 500 g ai/ha, 0 to 100 scale, 0 is no effect and 100 is complete control
[17] = Postemergence, 125 g ai/ha, visual rating on 0 to 100 scale (0 no effect, 100 complete control), approx. 10 days

Compound | Plant response rating, Morningglory [1, 14] | Plant response rating, Morningglory [1, 15] | Plant response rating, Morningglory [1, 16] | Plant response rating, Foxtail, Giant [2, 13] | Plant response rating, Foxtail, Giant [2, 14] | Plant response rating, Foxtail, Giant [2, 15] | Plant response rating, Foxtail, Giant [2, 16] | Plant response rating, Barnyardgrass [3, 13] | Plant response rating, Barnyardgrass [3, 14] | Plant response rating, Barnyardgrass [3, 15] | Plant response rating, Barnyardgrass [3, 16] | Plant response rating, Velvetleaf [4, 15] | Plant response rating, Velvetleaf [4, 16] | Plant response rating, Pigweed [5, 14] | Plant response rating, Pigweed [5, 15] | Plant response rating, Pigweed [5, 16] | Plant response rating, Crabgrass, Large [8, 13] | Plant response rating, Crabgrass, Large [8, 14] | Plant response rating, Crabgrass, Large [8, 16] | Plant response rating, Corn [10, 13] | also measured
O=C1NCC(c2ccc(C(F)(F)F)c(Cl)c2)C1C(=O)Nc1ccccc1C(F)(F)F (racemic) [Compound 251] | 0 | 0 | 0 | 0 | 20 | 40 | 80 | 0 | 30 | 20 | 80 | 0 | 0 | 20 | 0 | 30 | 0 | 30 | 90 | 0 | Plant response rating, Morningglory [1, 13]: 0; Plant response rating, Velvetleaf [4, 13]: 0; Plant response rating, Velvetleaf [4, 14]: 0; Plant response rating, Pigweed [5, 13]: 0; Plant response rating, Barnyardgrass ([6]; 1000 g ai/ha): 45; Plant response rating, Ducksalad ([7]; 1000 g ai/ha): 90; Plant response rating, Crabgrass, Large [8, 15]: 80; Plant response rating, Sedge, Umbrella ([9]; 1000 g ai/ha): 0; Plant response rating, Corn [10, 14]: 0; Plant response rating, Corn [10, 15]: 0; Plant response rating, Corn [10, 16]: 0; Plant response rating, Rice ([11]; 1000 g ai/ha): 0; Plant response rating, Wheat [12, 13]: 0; Plant response rating, Wheat [12, 14]: 0; Plant response rating, Wheat [12, 15]: 0; Plant response rating, Wheat [12, 16]: 0
O=C1NCC(c2ccc(OC(F)(F)F)cc2)C1C(=O)Nc1cccc(F)c1F (racemic) [Compound 257] | 0 | 0 | 0 | 80 | 90 | 80 | 90 | 50 | 80 | 40 | 80 | 0 | 0 | 0 | 0 | 0 | 90 | 90 | 90 | 0 | Plant response rating, Morningglory [1, 13]: 0; Plant response rating, Velvetleaf [4, 13]: 0; Plant response rating, Velvetleaf [4, 14]: 0; Plant response rating, Pigweed [5, 13]: 0; Plant response rating, Barnyardgrass ([6]; 250 g ai/ha): 0; Plant response rating, Ducksalad ([7]; 250 g ai/ha): 70; Plant response rating, Crabgrass, Large [8, 15]: 90; Plant response rating, Sedge, Umbrella ([9]; 250 g ai/ha): 0; Plant response rating, Corn [10, 14]: 20; Plant response rating, Corn [10, 15]: 0; Plant response rating, Corn [10, 16]: 0; Plant response rating, Rice ([11]; 250 g ai/ha): 15; Plant response rating, Wheat [12, 13]: 20; Plant response rating, Wheat [12, 14]: 30; Plant response rating, Wheat [12, 15]: 0; Plant response rating, Wheat [12, 16]: 0
O=C1NCC(c2ccc(C(F)(F)F)cc2F)C1C(=O)Nc1ccccc1F (racemic) [Compound 259] | 0 | 0 | 0 | 50 | 70 | 60 | 90 | 50 | 70 | 10 | 80 | 0 | 0 | 0 | 0 | 0 | 80 | 90 | 90 | 0 | Plant response rating, Morningglory [1, 13]: 0; Plant response rating, Velvetleaf [4, 13]: 0; Plant response rating, Velvetleaf [4, 14]: 0; Plant response rating, Pigweed [5, 13]: 0; Plant response rating, Barnyardgrass ([6]; 1000 g ai/ha): 20; Plant response rating, Ducksalad ([7]; 1000 g ai/ha): 90; Plant response rating, Sedge, Umbrella ([9]; 1000 g ai/ha): 10; Plant response rating, Corn [10, 14]: 0; Plant response rating, Corn [10, 15]: 0; Plant response rating, Corn [10, 16]: 0; Plant response rating, Rice ([11]; 1000 g ai/ha): 10; Plant response rating, Wheat [12, 13]: 0; Plant response rating, Wheat [12, 14]: 0; Plant response rating, Wheat [12, 15]: 0; Plant response rating, Wheat [12, 16]: 0
O=C1NCC(c2ccc(C(F)(F)F)nc2)C1C(=O)Nc1ccccc1C(F)(F)F (racemic) [Compound 264] | 0 | 0 | 0 | 60 | 80 | 80 | 90 | 30 | 80 | 50 | 90 | 0 | 0 | 60 | 50 | 80 | 80 | 90 | 100 | 0 | Plant response rating, Velvetleaf [4, 14]: 30; Plant response rating, Barnyardgrass ([6]; 1000 g ai/ha): 0; Plant response rating, Ducksalad ([7]; 1000 g ai/ha): 100; Plant response rating, Crabgrass, Large [8, 15]: 100; Plant response rating, Sedge, Umbrella ([9]; 1000 g ai/ha): 0; Plant response rating, Corn [10, 14]: 0; Plant response rating, Corn [10, 15]: 0; Plant response rating, Corn [10, 16]: 0; Plant response rating, Rice ([11]; 1000 g ai/ha): 0; Plant response rating, Wheat [12, 14]: 0; Plant response rating, Wheat [12, 15]: 0; Plant response rating, Wheat [12, 16]: 0
O=C1NCC(c2ccc(Cl)c(C(F)(F)F)c2)C1C(=O)Nc1cccc(F)c1F (racemic) [Compound 268] | 0 | 0 | 60 | 80 | 90 | 70 | 80 | 50 | 70 | 70 | 80 | 0 | 0 | 80 | 30 | 60 | 70 | 80 | 90 | 0 | Plant response rating, Morningglory [1, 17]: 20; Plant response rating, Pigweed [5, 17]: 50; Plant response rating, Barnyardgrass ([6]; 1000 g ai/ha): 0; Plant response rating, Ducksalad ([7]; 1000 g ai/ha): 100; Plant response rating, Crabgrass, Large [8, 15]: 80; Plant response rating, Sedge, Umbrella ([9]; 1000 g ai/ha): 0; Plant response rating, Corn [10, 14]: 40; Plant response rating, Corn [10, 15]: 0; Plant response rating, Corn [10, 16]: 80; Plant response rating, Rice ([11]; 1000 g ai/ha): 20; Plant response rating, Wheat [12, 17]: 0; Plant response rating, Wheat [12, 14]: 0; Plant response rating, Wheat [12, 15]: 0; Plant response rating, Wheat [12, 16]: 0
